The record followed here is ChEMBL document CHEMBL1201862, “PubChem BioAssay data set” (2004).

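How tested: cells in 96-well plates exposed to compound for 48 hours at five concentrations. The concentration for 50% growth inhibition is given as GI50.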 Calls of active or inactive are those of the source. Rule as the data show it: active = GI50 up to about 1.1 µM and inactive = higher. Some results are limits rather than exact numbers.

Among the test systems are UACC-62; A549; NCI-H23; SR; KM12; CCRF-CEM; SN12C; LOX IMVI; SNB-19; SK-OV-3; EKVX; SK-MEL-28; HCC 2998; HOP-62; CAKI-1; PC-3; NCI/ADR-RES; COLO 205; MCF7; MDA-MB-231.
Common to all, as to assay: DTP human tumour cell line panel, 48 h

Turning to `COc1ccc(C[C@H]2NC(=O)/C=C/C[C@@H]([C@H](C)[C@H]3O[C@@H]3c3ccccc3)OC(=O)[C@H](CC(C)C)OC(=O)[C@H](C)CNC2=O)cc1`, the GI50 in the assay on UACC-62 is 6.71e-06 µM (active); with A549, 3.16e-05 µM (active); in the assay with NCI-H23 it was 2.54e-05 µM (active); in the assay on SR, 3.36e-06 µM (active); in the assay with KM12 it was 3.93e-05 µM (active); in the assay with CCRF-CEM it was 1.75e-05 µM (active). In addition, the GI50 was 3.94e-05 µM (active) with SN12C; 1.74e-05 µM (active) with LOX IMVI; 2.47e-05 µM (active) in the assay on SNB-19; 2.06e-05 µM (active) with SK-OV-3; 3.77e-05 µM (active) with EKVX; 4.83e-05 µM (active) in the assay with SK-MEL-28. For the same compound, the GI50 with HCC 2998 is 4.45e-05 µM (active); with HOP-62, 2.47e-05 µM (active); in the assay on CAKI-1, 1.25e-05 µM (active); in the assay on PC-3, 2.09e-05 µM (active); with NCI/ADR-RES, > 0.0001 µM (active); in the assay on COLO 205, 1.99e-05 µM (active). For the same compound, the GI50 with MCF7 was > 8.95e-05 µM (active); in the assay on MDA-MB-231, 4.49e-05 µM (active).
Consider `Cc1nnc2cc(C(=O)O)c3ccccc3n2c1=O`, for which the GI50 in the assay with UACC-62, in the assay with A549, in the assay on NCI-H23, in the assay with SR, in the assay with CCRF-CEM and with SN12C was > 10 µM (inactive) throughout. Also, the GI50 in the assay on LOX IMVI, in the assay on SNB-19, with SK-OV-3, in the assay on EKVX, with SK-MEL-28 and in the assay on HCC 2998 was > 10 µM (inactive) each time. For the same compound, the GI50 with HOP-62, in the assay on CAKI-1, in the assay on PC-3, with NCI/ADR-RES, in the assay with COLO 205 and in the assay with MCF7 was > 10 µM (inactive) each time. Also, the GI50 with MDA-MB-231 was > 10 µM (inactive).
Turning to `Cc1ccc([S+]([O-])(=Nc2ccccc2)C(C(C)C)C(C)(C)Cl)cc1` (stereo not given), the GI50 in the assay with UACC-62 was 30.9 µM (inactive); in the assay on A549, 16.2 µM (inactive); in the assay on NCI-H23 it was 9.91 µM (inactive); in the assay on SR, 16.1 µM (inactive); in the assay with KM12 it was 13.5 µM (inactive); with CCRF-CEM, 9.1 µM (inactive). Also, the GI50 is 22.4 µM (inactive) in the assay with SN12C; 25.2 µM (inactive) with LOX IMVI; 8.67 µM (inactive) in the assay with SNB-19; > 50 µM (inactive) in the assay on SK-OV-3; 11.4 µM (inactive) in the assay on EKVX; 21.6 µM (inactive) with HCC 2998. In addition, the GI50 with HOP-62 is > 50 µM (inactive); in the assay with CAKI-1, 14.5 µM (inactive); in the assay on PC-3, 16.1 µM (inactive); in the assay on NCI/ADR-RES, 15 µM (inactive); in the assay with COLO 205, 0.91 µM (active); in the assay with MCF7, 20.6 µM (inactive). The GI50 in the assay on MDA-MB-231 was 17.2 µM (inactive).
Consider `O=[N+]([O-])c1cccc2nc3ccccc3c(NCCC[N+]3([O-])CCCCC3)c12`, for which the GI50 in the assay with UACC-62 is 0.272 µM (active); with A549, 0.521 µM (active); in the assay on NCI-H23, 0.232 µM (active); in the assay on SR, 0.0479 µM (active); with KM12, 0.349 µM (active); in the assay on CCRF-CEM, 0.546 µM (active). The GI50 in the assay on SN12C is 0.39 µM (active); with LOX IMVI it was 0.46 µM (active); in the assay with SNB-19 it was 0.638 µM (active); in the assay with SK-OV-3, 1.02 µM (active); with EKVX, 0.438 µM (active); with SK-MEL-28, 0.502 µM (active). Moreover, the GI50 with HCC 2998 was 0.136 µM (active); with HOP-62, 0.927 µM (active); with CAKI-1, 20 µM (inactive); in the assay on PC-3, 0.255 µM (active); with NCI/ADR-RES it was > 100 µM (inactive); in the assay with COLO 205, 0.143 µM (active). The values for the GI50 in the assay on MCF7 and in the assay on MDA-MB-231 were 0.176 µM (active) and 0.351 µM (active), respectively.
As to `O=[N+]([O-])/C(C(Cl)=C(Cl)Cl)=C(/Cl)SCc1ccccc1`, the GI50 in the assay with UACC-62 is 3.94 µM (inactive); in the assay with A549 it was 16.3 µM (inactive); in the assay with NCI-H23, 6.03 µM (inactive); in the assay with SR it was 1.43 µM (inactive); in the assay on KM12 it was 18.8 µM (inactive); in the assay on CCRF-CEM, 0.202 µM (active). The GI50 with SN12C is 3.61 µM (inactive); in the assay on LOX IMVI it was 11.3 µM (inactive); in the assay on SNB-19, 22.5 µM (inactive); with SK-OV-3, 21.2 µM (inactive); in the assay on EKVX, 20.4 µM (inactive); in the assay on SK-MEL-28, 5.65 µM (inactive). In addition, the GI50 is 24.8 µM (inactive) in the assay with HCC 2998; 15.2 µM (inactive) with HOP-62; 3.18 µM (inactive) in the assay with CAKI-1; 16 µM (inactive) with PC-3; 1.85 µM (inactive) in the assay with NCI/ADR-RES; 1.74 µM (inactive) in the assay on COLO 205. For the same compound, the GI50 with MCF7 was 0.495 µM (active); with MDA-MB-231, 2.3 µM (inactive).
With `COC(=O)CN(CC(O)C(NC(C)=O)C(O)C=O)C(=O)OCc1ccccc1` (stereo not given), the GI50 with UACC-62, in the assay on A549, in the assay with NCI-H23, with SR, in the assay on KM12 and in the assay on CCRF-CEM was > 100 µM (inactive) in each case. Moreover, the GI50 in the assay on SN12C, in the assay on LOX IMVI, in the assay on SNB-19, with SK-OV-3, in the assay on EKVX and in the assay with SK-MEL-28 was > 100 µM (inactive) in each case. Also, the GI50 with HCC 2998, in the assay with HOP-62, with CAKI-1, with PC-3, with NCI/ADR-RES and in the assay with COLO 205 was > 100 µM (inactive) each time. The GI50 in the assay on MCF7 and in the assay on MDA-MB-231 was > 100 µM (inactive) each time.
For the compound `OC1(c2ccccc2)CSc2ncnn21` (stereo not given), the GI50 with UACC-62, in the assay with A549, in the assay with NCI-H23, with SR, in the assay on KM12 and in the assay with CCRF-CEM was > 100 µM (inactive) in each case. For the same compound, the GI50 in the assay with SN12C, with LOX IMVI, in the assay with SNB-19, with SK-OV-3, in the assay with EKVX and in the assay on HCC 2998 was > 100 µM (inactive) in each case. Also, the GI50 in the assay on HOP-62, in the assay with CAKI-1, in the assay with PC-3, in the assay on NCI/ADR-RES, in the assay with COLO 205 and in the assay on MCF7 was > 100 µM (inactive) throughout. Moreover, the GI50 in the assay with MDA-MB-231 is > 100 µM (inactive).
Take `N#Cc1c(NC(=S)Nc2ccc(Cl)cc2)sc2c1CCN(N1CCc3c(sc(NC(=S)Nc4ccc(Cl)cc4)c3C#N)C1)C2`: the GI50 is 10.6 µM (inactive) in the assay on UACC-62; 28.5 µM (inactive) in the assay with A549; 33 µM (inactive) in the assay with NCI-H23; > 100 µM (inactive) in the assay on SR; 55.2 µM (inactive) in the assay on KM12; 33 µM (inactive) in the assay with CCRF-CEM. For the same compound, the GI50 with SN12C is 39.3 µM (inactive); with LOX IMVI it was 5.62 µM (inactive); with SNB-19, 64 µM (inactive); in the assay with SK-OV-3 it was > 100 µM (inactive); in the assay with EKVX, 18.2 µM (inactive); in the assay with SK-MEL-28 it was 24 µM (inactive). Further, the GI50 was 50.2 µM (inactive) in the assay with HCC 2998; 16 µM (inactive) in the assay with HOP-62; 63.8 µM (inactive) with CAKI-1; 37.4 µM (inactive) with PC-3; 76.6 µM (inactive) with NCI/ADR-RES; 16 µM (inactive) with COLO 205. In addition, the GI50 was 37.2 µM (inactive) in the assay with MCF7 and 12.7 µM (inactive) with MDA-MB-231.
Regarding `C(=C/c1nnnn1-c1ccccc1)/Nc1ccccc1`, the GI50 is 20.2 µM (inactive) in the assay with UACC-62; 52.4 µM (inactive) in the assay with A549; 23.7 µM (inactive) in the assay with NCI-H23; > 10 µM (inactive) with SR; 31.6 µM (inactive) with KM12; 25.5 µM (inactive) in the assay on CCRF-CEM. Moreover, the GI50 with SN12C is 30.8 µM (inactive); with LOX IMVI, 28.1 µM (inactive); in the assay with SNB-19 it was 26.7 µM (inactive); with SK-OV-3, 36.2 µM (inactive); in the assay on EKVX it was 40.6 µM (inactive); in the assay with SK-MEL-28, 78.7 µM (inactive). The GI50 in the assay with HCC 2998 is 21.7 µM (inactive); with HOP-62, 25.4 µM (inactive); with CAKI-1, 43 µM (inactive); in the assay with PC-3 it was 27.2 µM (inactive); in the assay on NCI/ADR-RES, 24.6 µM (inactive); in the assay with COLO 205, 33.7 µM (inactive). The GI50 in the assay with MCF7 was 19.3 µM (inactive); with MDA-MB-231, 39 µM (inactive).
With `Clc1ccc(-c2cc3nc4ccccc4nc3o2)cc1`, the GI50 in the assay with UACC-62 was 38.3 µM (inactive); with A549, > 100 µM (inactive); in the assay on NCI-H23, > 100 µM (inactive); with SR it was > 100 µM (inactive); in the assay with KM12 it was > 100 µM (inactive); in the assay with CCRF-CEM, > 100 µM (inactive). The GI50 in the assay on LOX IMVI was > 100 µM (inactive); in the assay on SNB-19, 31.6 µM (inactive); with SK-OV-3, 59.4 µM (inactive); in the assay with EKVX, > 100 µM (inactive); in the assay with SK-MEL-28, > 100 µM (inactive); in the assay with HCC 2998, > 100 µM (inactive). Further, the GI50 in the assay with CAKI-1 is > 100 µM (inactive); in the assay on PC-3, > 100 µM (inactive); with NCI/ADR-RES it was 52.5 µM (inactive); with COLO 205, > 100 µM (inactive); in the assay on MCF7 it was 64.4 µM (inactive); with MDA-MB-231, > 100 µM (inactive).

The term GI50 denotes the concentration at which growth is held to half of that of the control.
